Data: the supplement of paper PMC10307832

How the values were obtained:
Test in all cases: relative viability (nuclei count vs DMSO), 5 days (fraction); higher = more cells survive
Sorafenib + Crizotinib = compound: CNC(=O)c1cc(Oc2ccc(NC(=O)Nc3ccc(Cl)c(C(F)(F)F)c3)cc2)ccn1 [Sorafenib] + C[C@@H](Oc1cc(-c2cnn(C3CCNCC3)c2)cnc1N)c1c(Cl)ccc(F)c1Cl [Crizotinib] (partner 1 µM)
Summary of the method: (§1)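 One day after seeding in 1536-well plates, lung cancer cell lines were dosed by pin tool. Dosing was either single-drug or a fixed anchor-drug dose plus five library-drug doses (not always all listed) in √10 steps. After 5 days, nuclei were stained in one fix-and-stain step and counted on 4× images, and relative viability is the nuclei count of treated wells over that of vehicle wells, given as the median of duplicate plates.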

Sorafenib + Pictilisib = compound: CNC(=O)c1cc(Oc2ccc(NC(=O)Nc3ccc(Cl)c(C(F)(F)F)c3)cc2)ccn1 [Sorafenib] + CS(=O)(=O)N1CCN(Cc2cc3nc(-c4cccc5[nH]ncc45)nc(N4CCOCC4)c3s2)CC1 [Pictilisib] (partner 1 µM)
Summary of the method: as §1

Sorafenib + Phenformin = compound: CNC(=O)c1cc(Oc2ccc(NC(=O)Nc3ccc(Cl)c(C(F)(F)F)c3)cc2)ccn1 [Sorafenib] + N=C(N)NC(=N)NCCc1ccccc1 [Phenformin] (partner 250 µM)
Summary of the method: as §1

Sorafenib + Vorinostat = compound: CNC(=O)c1cc(Oc2ccc(NC(=O)Nc3ccc(Cl)c(C(F)(F)F)c3)cc2)ccn1 [Sorafenib] + O=C(CCCCCCC(=O)Nc1ccccc1)NO [Vorinostat] (partner 1 µM)
Summary of the method: as §1

Sorafenib + Dasatinib = compound: CNC(=O)c1cc(Oc2ccc(NC(=O)Nc3ccc(Cl)c(C(F)(F)F)c3)cc2)ccn1 [Sorafenib] + Cc1nc(Nc2ncc(C(=O)Nc3c(C)cccc3Cl)s2)cc(N2CCN(CCO)CC2)n1 [Dasatinib] (partner 0.075 µM)
Summary of the method: as §1

Cell Line	relative viability (Sorafenib + Crizotinib; first compound 0.08 µM)	relative viability (Sorafenib + Crizotinib; first compound 0.253 µM)	relative viability (Sorafenib + Crizotinib; first compound 2.53 µM)	relative viability (Sorafenib + Crizotinib; first compound 8 µM)	relative viability (Sorafenib + Pictilisib; first compound 0.08 µM)	relative viability (Sorafenib + Pictilisib; first compound 0.253 µM)	relative viability (Sorafenib + Pictilisib; first compound 2.53 µM)	relative viability (Sorafenib + Pictilisib; first compound 8 µM)	relative viability (Sorafenib + Phenformin; first compound 0.08 µM)	relative viability (Sorafenib + Phenformin; first compound 0.253 µM)	relative viability (Sorafenib + Phenformin; first compound 2.53 µM)	relative viability (Sorafenib + Phenformin; first compound 8 µM)	relative viability (Sorafenib + Vorinostat; first compound 0.08 µM)	relative viability (Sorafenib + Vorinostat; first compound 0.253 µM)	relative viability (Sorafenib + Vorinostat; first compound 2.53 µM)	relative viability (Sorafenib + Vorinostat; first compound 8 µM)	relative viability (Sorafenib + Dasatinib; first compound 0.08 µM)	relative viability (Sorafenib + Dasatinib; first compound 0.253 µM)	relative viability (Sorafenib + Dasatinib; first compound 2.53 µM)	relative viability (Sorafenib + Dasatinib; first compound 8 µM)
NCI-H1734	0.746	0.625	0.66	0.426	0.465	0.469	0.471	0.248	0.459	0.362	0.411	0.236	0.936	0.708	0.752	0.631	0.536	0.402	0.402	0.357
NCI-H1755	0.917	0.817	0.874	0.615	0.466	0.422	0.417	0.263	0.569		0.624	0.534	0.81	0.702	0.843	0.549	0.419	0.436	0.409	0.35
NCI-H1915	0.892	0.786	0.829	0.907	0.875	0.911	0.958	0.866	0.357	0.33	0.359	0.341	0.444	0.364	0.355	0.582	0.326	0.327	0.402	0.273
NCI-H1944	1.12	1	1.08	0.912	0.368	0.332	0.365	0.274	0.207	0.188	0.21	0.144	0.539	0.497	0.626	0.417	0.213	0.229	0.245	0.206
NCI-H1975	0.988	1.03	0.985	0.466	0.312	0.308	0.376	0.286	0.462	0.403	0.429	0.341	0.788	0.787	0.72	0.436	0.423	0.305	0.374	0.314
NCI-H1993	0.988	1	1.08	0.851	0.833	0.788	0.707	0.677	0.516	0.51	0.499	0.499	0.973	0.726	1.1	0.633	0.547	0.302	0.554	0.384
NCI-H2009	0.972	0.921	0.915	0.603	0.866	0.621	0.752	0.265	0.47	0.365	0.433	0.157	0.703	0.666	0.699	0.719	0.346	0.23	0.325	0.16
NCI-H2023	0.66		0.713	0.357	0.301	0.269	0.263	0.181	0.51	0.395	0.374	0.174	0.954	0.571	0.599	0.339	0.681	0.485	0.601	0.275
NCI-H2085	0.938	1.01	0.965	0.717	0.541	0.444	0.549	0.481		0.623	0.756	0.48	0.852	0.795	1.01	0.78	0.311	0.271	0.26	0.237
NCI-H2087	0.83	0.746	0.784	0.308	1.02	0.787	0.609	0.349	0.467	0.403	0.389	0.14	0.615	0.545	0.474	0.209	1.03	0.744	0.684	0.154
NCI-H2126	0.998	0.984	1.09	0.962	0.498	0.505	0.618	0.54	0.539	0.529	0.603	0.501	0.88	0.747	0.828	0.799	0.735	0.533	0.652	0.501
NCI-H2170	1.34	1.08	1.14	1.05	0.323	0.348	0.369	0.255	0.403	0.437	0.43	0.361	0.842	0.665	0.856	0.576	0.771	0.485	0.6	0.518
NCI-H2228	0.474	0.511	0.727	0.262	0.384	0.375	0.337	0.529	0.362	0.285	0.259	0.133	0.672	0.598	0.265	0.315	0.543	0.434	0.465	0.271
NCI-H2347	0.796	0.559	0.491	0.525	0.956	0.479	0.641	0.493	0.519	0.398	0.351	0.326	0.694	0.543	0.524	0.52	0.74	0.351	0.351	0.308
NCI-H2405	0.884	0.767		0.76	0.539	0.39	0.363	0.293	0.421	0.334	0.405	0.259	1.09	0.801	1.09	0.706	0.217	0.183	0.2	0.214
NCI-H3122	0.29	0.317	0.326	0.293	0.762	0.671	0.604	0.234	0.39	0.326	0.346	0.212	1.03	0.932		0.846	0.92	0.422	0.715	0.311
PC-3 [JPC-3]	0.978	0.957	0.985		0.813	0.659	0.752	0.679	0.512	0.458	0.492	0.453	0.886	0.555	1.1	0.883	1.03	0.936		
PC-14	0.935	1	0.967	0.533	0.748	0.542	0.625	0.344	0.632	0.429	0.696	0.591	0.833	0.721	0.641	0.481	0.302	0.256	0.276	0.185
RERF-LC-KJ	0.885	0.798	0.856	0.768	0.604	0.578	0.612	0.438	0.437	0.435	0.463	0.394	0.723	0.608	0.738	0.665	0.967	0.668	0.77	0.401
SK-LU-1	0.956		0.79	0.309	0.61	0.439	0.579	0.412	0.641	0.484	0.487	0.195	0.824		0.719	0.455	0.197	0.184	0.196	0.185
SK-MES-1	1.06	0.94	0.92	0.865	0.451	0.439	0.447	0.377	0.689	0.62	0.596	0.424	1.15	0.914		0.842	0.434	0.276	0.41	0.273
SW 1573	0.984	0.86	0.89	0.753	0.464	0.465	0.402	0.257	0.446	0.403	0.388	0.0803	0.662	0.618	0.366	0.425	0.752	0.38	0.505	0.213
UMC-11	0.558	0.578	0.541	0.204	0.85	0.78	0.759	0.523	0.316	0.301	0.24	0.155	0.395	0.422	0.379	0.36	0.509	0.396	0.357	0.205
